According to patent US11957684B2, “Treatment of heavy menstrual bleeding associated with uterine fibroids” (Sumitomo Pharma Switzerland GmbH, priority 2016, dated 2024):
Where “and” joins values, the source holds several entries; their conditions need not be identical. Equal values may be shown once. Read-outs that look alike come from different tables or passages of the source.

What was measured:
FIG. 13 = test: FIG. 13
Text: Table printed on a drawing sheet, FIG. 13
The patent's description of the figure: FIG. 13 is a table of urine PK parameters for Cohorts 8 to 10 on Day 14 of the treatment period in accordance with Example 4.
First reader's note: Per the description these are urine PK parameters for Cohorts 8 to 10 on Day 14; each column is one dose group.

FIG. 6B = test: FIG. 6B
Procedure: Table printed on a drawing sheet, FIG. 6B
(§1) The patent's description of the figure: FIGS. 6A-C are tables of plasma PK parameters for Cohort 7 in accordance with Example 4.
(§2) First reader's note: Part of a plasma PK table series (FIGS. 6A-C) for Cohort 7; each column is a fed or fasted 40 mg arm.

FIG. 12 = test: FIG. 12
Text: Table printed on a drawing sheet, FIG. 12
The patent's description of the figure: FIG. 12 is a table of urine PK parameters for Cohorts 8 to 10 on Day 1 of the treatment period in accordance with Example 4.
First reader's note: Per the description these are urine PK parameters for Cohorts 8 to 10 on Day 1; each column is one dose group.

FIG. 6C = test: FIG. 6C
Procedure: Table printed on a drawing sheet, FIG. 6C
as §1, §2

[1] = Single dose (1 to 80 mg) and 14-day multiple dose (10 to 40 mg) PK of the Compound 1 formulation; assay type: in vivo; conditions: for half-life: read-out: mean plasma half-life (T1/2)
Text: However, in a preferred embodiment, the pharmacokinetics of the Compound 1 formulation are not affected by food intake.
The mean plasma AUC after a single dose was higher after fasted dosing than after postprandial or preprandial dosing. The mean plasma AUC and mean Cmax with multiple dosing were higher with preprandial than with postprandial dosing.

[2] = test system: women with uterine fibroids; conditions: in vivo
Procedure: The primary endpoint was the proportion of patients with a total Pictorial Blood Loss Assessment Chart (PBAC) score 4 of <10 from Week 6 to 12. Secondary endpoints included amenorrhea (PBAC score of 0), myoma and uterine volumes, hemoglobin (Hb), Numerical Rating Scale (NRS) score, Uterine Fibroid Symptom and Quality of Life (UFS-QOL) scores. Serum levels of luteinizing hormone (LH), follicle-stimulating hormone (FSH), estradiol (E2) and progesterone (P) were evaluated as pharmacodynamics endpoints. Safety endpoints included adverse events (AEs), vital signs, weight, 12-lead electrocardiogram (ECG), clinical laboratory tests, bone mineral density (BMD) and recovery of menstruation.
The bone mineral density (BMD) of the second to fourth lumbar vertebra (L2 to L4) was measured using dual X-ray absorptiometry (DXA).

[3] = test system: women with uterine fibroids; conditions: in vivo; remark: listed apart in the source
Text: Secondary endpoints for safety included: Adverse events (AEs), vital signs, weight, standard 12-lead electrocardiogram (ECG), clinical laboratory tests, BMD, biochemical bone metabolism markers (serum N-telopeptide [NTELOP] and bone specific alkaline phosphatase [BAP])

[4] = human, in vivo; cited from earlier work
[5] = human, plasma, po, Day 14 of multiple doses of 10 to 40 mg

CONC(=O)Nc1ccc(-c2sc3c(c2CN(C)C)c(=O)n(-c2ccc(OC)nn2)c(=O)n3Cc2c(F)cccc2F)cc1 [Compound 1, N-(4-(1-(2,6-difluorobenzyl)-5-((dimethylamino)methyl)-3-(6-methoxy-3-pyridazinyl)-2,4-dioxo-1,2,3,4-tetrahydrothieno[2,3-d]pyrimidin-6-yl)phenyl)-N′-methoxyurea]
Ae (0-24) (ng) | Median (FIG. 13): 141057.00 ng
CLr (L/hr) | Mean (FIG. 13): 6.4821 L/h and 6.7992 L/h and 6.8776 L/h
Fe (%) | Mean (FIG. 13): 1.335% and 1.930% and 1.955%
Lambda_z (1/hr) | Mean (FIG. 6B): 0.04147 h⁻¹ and 0.04013 h⁻¹
T1/2 (hr) | Mean (FIG. 6B): 16.9911 h and 17.6896 h
Tmax (hr) | Median (FIG. 6B): 3.005 h and 3.980 h
CLr (L/hr) | Mean (FIG. 12): 7.1595 L/h and 6.7303 L/h and 7.7148 L/h
Fe (%) | Mean (FIG. 12): 0.639% and 0.938% and 1.209%
CL/F (L/hr) | Mean (FIG. 6C): 739.7 L/h and 445.4 L/h
Vz/F (L) | Mean (FIG. 6C): 17932.0 L and 11042.3 L
half-life ([1]; human, plasma, po, single dose 1 to 80 mg): 7.1 to 19.8 h
Tmax [1, 5]: 1 to 1.5 h
half-life [1, 5]: 19.2 to 24.6 h
day by which steady state was reached ([1]; multiple dosing): ≤ 7 days
menstruation recovery period after the last dose [2]: 20 to 35 days

CCNC(=O)[C@@H]1CCCN1C(=O)[C@H](CCCNC(=N)N)NC(=O)[C@H](CC(C)C)NC(=O)[C@@H](CC(C)C)NC(=O)[C@H](Cc1ccc(O)cc1)NC(=O)[C@H](CO)NC(=O)[C@H](Cc1c[nH]c2ccccc12)NC(=O)[C@H](Cc1c[nH]cn1)NC(=O)[C@@H]1CCC(=O)N1 [leuprolide acetate, reference compound]
AE leading to discontinuation: Abdominal pain [3]: 1(0.7) n(%)
AE leading to discontinuation: Arthralgia [3]: 1(0.7) n(%)
AE leading to discontinuation: Back pain [3]: 1(0.7) n(%)
AE leading to discontinuation: Blood pressure increased [3]: 1(0.7) n(%)
AE leading to discontinuation: Depression [3]: 0(0.0) n(%)
AE leading to discontinuation: Drug eruption [3]: 1(0.7) n(%)
AE leading to discontinuation: Fatigue [3]: 0(0.0) n(%)
AE leading to discontinuation: Headache [3]: 0(0.0) n(%)
AE leading to discontinuation: Hot flush [3]: 1(0.7) n(%)
AE leading to discontinuation: Hypertension [3]: 1(0.7) n(%)
AE leading to discontinuation: Liver function test abnormal [3]: 1(0.7) n(%)
AE leading to discontinuation: Liver function test increased [3]: 1(0.7) n(%)
AE leading to discontinuation: Malaise [3]: 1(0.7) n(%)
AE leading to discontinuation: Nausea [3]: 1(0.7) n(%)
AE leading to discontinuation: Pyrexia [3]: 1(0.7) n(%)
AE leading to discontinuation: Tenosynovitis [3]: 0(0.0) n(%)
AE leading to discontinuation: Tenosynovitis stenosans [3]: 0(0.0) n(%)
AE: Arthralgia [3]: 9(6.3) n(%)
AE: Bone density decreased [3]: 8(5.6) n(%)
AE: Bone resorption test abnormal [3]: 7(4.9) n(%)
AE: Dizziness [3]: 7(4.9) n(%)
AE: Gamma-glutamyl transferase increased [3]: 9(6.3) n(%)
AE: Genital haemorrhage [3]: 7(4.9) n(%)
AE: Headache [3]: 14(9.9) n(%)
AE: Hot flush [3]: 75(52.8) n(%)
AE: Hyperhidrosis [3]: 15(10.6) n(%)
AE: Malaise [3]: 5(3.5) n(%)
AE: Menorrhagia [3]: 22(15.5) n(%)
AE: Metrorrhagia [3]: 93(65.5) n(%)
AE: Resorption bone increased [3]: 8(5.6) n(%)
AE: Somnolence [3]: 6(4.2) n(%)
AE: Viral upper respiratory tract infection [3]: 46(32.4) n(%)
AEs Leading to Study Drug Discontinuation [3]: 7(4.9) n(%)
ALP > 3 × ULN [3]: 0 (0.0) n (%)
ALT > 3 × ULN [3]: 2 (1.4) n (%)
ALT > 5 × ULN [3]: 0 (0.0) n (%)
ALT and AST > 3 × ULN [3]: 0 (0.0) n (%)
ALT or AST > 3 × ULN with Tbili > 2 × ULN [3]: 0 (0.0) n (%)
AST > 3 × ULN [3]: 0 (0.0) n (%)
AST > 5 × ULN [3]: 0 (0.0) n (%)
Any Markedly Abnormal LFT [3]: 2 (1.4) n (%)
SAEs Leading to Study Drug Discontinuation [3]: 0(0.0) n(%)
Serious Treatment-Emergent AEs [3]: 2(1.4) n(%)
Serious Treatment-Emergent AEs, Not Related [3]: 2(1.4) n(%)
Serious Treatment-Emergent AEs, Related [3]: 0(0.0) n(%)
Treatment-Emergent AEs [3]: 139(97.9) n(%)
Treatment-Emergent AEs, Not Related [3]: 5(3.5) n(%)
Treatment-Emergent AEs, Related [3]: 134(94.4) n(%)
bone mineral density decrease [4]: −2.21±1.709%
women with a decrease of more than 5.0% in bone mineral density [4]: 10 of 157
